Reference: PubChem BioAssay AID248 (DTP/NCI, 2004)
Where “and” joins values, the source holds several entries; their conditions need not be identical. Equal entries are not always repeated. Inconclusive results and toxic doses are left out.

Test system: L1210 leukemia ip in BDF1 mice, survival T/C
Experiment: NCI In Vivo Anticancer Drug Screen. Data for tumor model L1210 Leukemia (intraperitoneal) in B6D2F1 (BDF1) mice
Conditions: endpoint: mean survival time, higher = longer survival
Outline: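 Survival endpoint. Drug-treated group vs vehicle group, expressed as T divided by C. Tumor passaged by transplantation.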

[1] = dose: 100.0 mg/kg/injection, schedule: Q04DX003 (ip), vehicle: saline with Tween-80
[2] = dose: 200.0 mg/kg/injection, schedule: Q04DX003 (ip), vehicle: saline with Tween-80
[3] = dose: 100.0 mg/kg/injection, schedule: Q01DX001 (ip), vehicle: carboxymethylcellulose (CMC)
[4] = dose: 200.0 mg/kg/injection, schedule: Q01DX001 (ip), vehicle: carboxymethylcellulose (CMC)
[5] = dose: 400.0 mg/kg/injection, schedule: Q01DX001 (ip), vehicle: carboxymethylcellulose (CMC)
[6] = dose: 100.0 mg/kg/injection, schedule: Q01DX001 (ip), vehicle: saline
[7] = dose: 200.0 mg/kg/injection, schedule: Q01DX001 (ip), vehicle: saline
[8] = dose: 400.0 mg/kg/injection, schedule: Q01DX001 (ip), vehicle: saline
[9] = dose: 400.0 mg/kg/injection, schedule: Q04DX003 (ip), vehicle: saline with Tween-80
[10] = dose: 100.0 mg/kg/injection, schedule: Q04DX002 (ip), vehicle: saline with Tween-80
[11] = dose: 200.0 mg/kg/injection, schedule: Q04DX002 (ip), vehicle: saline with Tween-80
[12] = dose: 400.0 mg/kg/injection, schedule: Q04DX002 (ip), vehicle: saline with Tween-80
[13] = dose: 100.0 mg/kg/injection, schedule: Q04DX003 (ip), vehicle: saline
[14] = dose: 200.0 mg/kg/injection, schedule: Q04DX003 (ip), vehicle: saline
[15] = dose: 400.0 mg/kg/injection, schedule: Q04DX003 (ip), vehicle: saline
[16] = dose: 100.0 mg/kg/injection, schedule: Q01DX001 (ip), vehicle: saline with Tween-80
[17] = dose: 200.0 mg/kg/injection, schedule: Q01DX001 (ip), vehicle: saline with Tween-80
[18] = dose: 400.0 mg/kg/injection, schedule: Q01DX001 (ip), vehicle: saline with Tween-80
[19] = dose: 100.0 mg/kg/injection, schedule: Q01DX009 (ip), vehicle: saline with Tween-80
[20] = dose: 200.0 mg/kg/injection, schedule: Q01DX009 (ip), vehicle: saline with Tween-80
[21] = dose: 400.0 mg/kg/injection, schedule: Q01DX009 (ip), vehicle: saline with Tween-80

For `CCCCCCCCCCCCCCCCCCN1C(=O)C2C(C1=O)C1(Cl)C(Cl)=C(Cl)C2(Cl)C1(Cl)Cl` (stereo unspecified), the T/C [1] was 96 % of control and the T/C [2] was 93 % of control.

For `CC1=C(c2ccccc2)C(c2ccccc2)=CC1=O`, the T/C (dose: 50.0 mg/kg/injection, schedule: Q01DX001 (ip), vehicle: carboxymethylcellulose (CMC)) was 95 % of control, the T/C [3] was 92 % of control and the T/C [4] was 92 % of control. The T/C [5] was 95 % of control.

For `COc1ccc2c3c1OC1C4(OC)CCC5(c6c(O)ccc(O)c64)C(C2)N(C)CCC315` (stereo unspecified), the T/C [6] was 86 % of control, the T/C [7] was 96 % of control and the T/C [8] was 94 % of control.

In the case of `Cc1cc(C)c(I)c(C(=O)O)c1`, the T/C [1] is reported as 95 % of control, the T/C [2] is reported as 104 % of control and the T/C [9] is reported as 104 % of control.

In the case of `CC(=O)OCC/[N+]([O-])=C\c1ncc([N+](=O)[O-])n1C`, the T/C (dose: 100.0 mg/kg/injection, schedule: Q04DX002 (ip), vehicle: saline) is reported as 100 % of control, the T/C (dose: 200.0 mg/kg/injection, schedule: Q04DX002 (ip), vehicle: saline) is reported as 114 % of control and the T/C (dose: 400.0 mg/kg/injection, schedule: Q04DX002 (ip), vehicle: saline) is reported as 100 % of control.

For `CCCCCCCCCCC1CCCC1`, the T/C [10] was 94 % of control, the T/C [11] was 98 % of control and the T/C [12] was 94 % of control.

In the case of `CCOC(=O)CCOCOCCC(=O)OCC`, the T/C [13] is reported as 106 % of control, the T/C [14] is reported as 110 % of control and the T/C [15] is reported as 95 % of control.

For `OCCC#CCCCOC1CCCCO1` (stereo unspecified), the T/C (dose: 100.0 mg/kg/injection, schedule: Q04DX002 (ip), vehicle: Klucel (hydroxypropylcellulose) (HPC)) was 105 % of control, the T/C (dose: 200.0 mg/kg/injection, schedule: Q04DX002 (ip), vehicle: Klucel (hydroxypropylcellulose) (HPC)) was 90 % of control and the T/C (dose: 400.0 mg/kg/injection, schedule: Q04DX002 (ip), vehicle: Klucel (hydroxypropylcellulose) (HPC)) was 93 % of control.

In the case of `O=C1Cc2ncccc2N1`, the T/C [6] is reported as 107 % of control, the T/C [7] is reported as 100 % of control and the T/C [8] is reported as 114 % of control.

With `S=C([S-])N1CCN(c2ccccc2)CC1.S=C([S-])N1CCN(c2ccccc2)CC1.[Zn]` the T/C [13] was 89 % of control, the T/C [14] was 95 % of control and 88 % of control and the T/C [15] was 90 % of control.

With `CCCCCCCCCCCCN1CCSCC1` the T/C (dose: 25.0 mg/kg/injection, schedule: Q04DX003 (ip), vehicle: saline with Tween-80) was 95 % of control and 105 % of control, the T/C (dose: 50.0 mg/kg/injection, schedule: Q04DX003 (ip), vehicle: saline with Tween-80) was 104 % of control and 90 % of control and the T/C [16] was 105 % of control and 117 % of control. For the same compound, the T/C [10] was 95 % of control and 113 % of control, the T/C [17] was 94 % of control and 117 % of control and the T/C [11] was 95 % of control and 113 % of control. For the same compound, the T/C [2] was 93 % of control and 104 % of control and 110 % of control, the T/C [18] was 97 % of control and 104 % of control and the T/C [12] was 97 % of control and 98 % of control. The T/C [9] was 108 % of control and 90 % of control.

`O=C(O)C(F)(F)C(F)(F)C(=O)Nc1cc([N+](=O)[O-])ccc1F` was tested, and the T/C [6] was 93 % of control, the T/C [7] was 93 % of control and the T/C [8] was 93 % of control.

For `Cc1ccc(S(=O)(=O)ON/N=C2\C(=O)C3CCC2C3)cc1` (stereo unspecified), the T/C [10] was 95 % of control.

For `O=S(=O)(Cl)C1c2ccccc2-c2ccccc21`, the T/C (dose: 100.0 mg/kg/injection, schedule: Q04DX002 (ip), vehicle: other) was 104 % of control, the T/C (dose: 200.0 mg/kg/injection, schedule: Q04DX002 (ip), vehicle: other) was 96 % of control and the T/C (dose: 400.0 mg/kg/injection, schedule: Q04DX002 (ip), vehicle: other) was 90 % of control.

With `C[N+](C)(CCOc1ccccc1)Cc1cccs1` the T/C (dose: 50.0 mg/kg/injection, schedule: Q01DX001 (ip), vehicle: saline) was 109 % of control and the T/C [6] was 97 % of control.

In the case of `CCOc1cccc(NNc2ccccc2OCC)c1`, the T/C (dose: 44.0 mg/kg/injection, schedule: Q01DX001 (ip), vehicle: other) is reported as 106 % of control, the T/C (dose: 66.0 mg/kg/injection, schedule: Q01DX001 (ip), vehicle: other) is reported as 95 % of control and the T/C (dose: 150.0 mg/kg/injection, schedule: Q01DX001 (ip), vehicle: other) is reported as 92 % of control. The T/C (dose: 200.0 mg/kg/injection, schedule: Q01DX001 (ip), vehicle: other) was 97 % of control and the T/C (dose: 400.0 mg/kg/injection, schedule: Q01DX001 (ip), vehicle: other) was 97 % of control.

In the case of `[Cl][Pt+2][Cl].[NH-]c1ccc(Cl)cc1[NH-]`, the T/C (dose: 12.5 mg/kg/injection, schedule: Q04DX003 (ip), vehicle: saline) is reported as 178 % of control, the T/C (dose: 25.0 mg/kg/injection, schedule: Q04DX003 (ip), vehicle: saline) is reported as 113 % of control and the T/C [13] is reported as 105 % of control and 108 % of control. The T/C (dose: 800.0 mg/kg/injection, schedule: Q04DX003 (ip), vehicle: saline) was 103 % of control.

`COC1CC(N=[N+]=[N-])C(OC(=O)c2ccccc2)C(C)O1` (stereo unspecified) was tested, and the T/C [19] was 110 % of control, the T/C [1] was 96 % of control and the T/C [20] was 102 % of control. The T/C [2] was 100 % of control, the T/C [21] was 98 % of control and the T/C [9] was 102 % of control.

`CC(=O)NCC(C)(C)c1ccccc1` was tested, and the T/C [6] was 96 % of control, the T/C (dose: 100.0 mg/kg/injection, schedule: Q01DX009 (ip), vehicle: saline) was 102 % of control and the T/C [7] was 102 % of control. The T/C (dose: 200.0 mg/kg/injection, schedule: Q01DX009 (ip), vehicle: saline) was 100 % of control, the T/C [8] was 110 % of control and the T/C (dose: 400.0 mg/kg/injection, schedule: Q01DX009 (ip), vehicle: saline) was 102 % of control.

For `Nc1cc(SC(c2ccccc2)c2ccccc2)c(N)c(N)n1`, the T/C (dose: 75.0 mg/kg/injection, schedule: Q01DX001 (ip), vehicle: DMSO) was 96 % of control and the T/C (dose: 150.0 mg/kg/injection, schedule: Q01DX001 (ip), vehicle: DMSO) was 88 % of control.

For `CCCCCCCCCCCC(=O)NC(=S)Nc1ccc(C(=O)O)cc1`, the T/C [16] was 103 % of control, the T/C [19] was 98 % of control and 101 % of control and the T/C [10] was 102 % of control and 105 % of control. For the same compound, the T/C [1] was 101 % of control, the T/C [17] was 102 % of control and the T/C [20] was 93 % of control and 103 % of control. The T/C [11] was 100 % of control and 112 % of control, the T/C [2] was 98 % of control and the T/C [18] was 96 % of control. For the same compound, the T/C [21] was 101 % of control and 92 % of control, the T/C [12] was 103 % of control and 115 % of control and the T/C [9] was 101 % of control.

In the case of `O=[N+]([O-])c1cccc([N+](=O)[O-])c1Cl`, the T/C [3] is reported as 114 % of control, the T/C [4] is reported as 108 % of control and the T/C [5] is reported as 108 % of control.

For `NCC(=O)c1ccc(OC(=O)c2ccccc2)cc1`, the T/C [19] was 92 % of control, the T/C [1] was 95 % of control and the T/C [20] was 94 % of control. For the same compound, the T/C [2] was 95 % of control, the T/C [21] was 103 % of control and the T/C [9] was 96 % of control.

`COc1ccc(C(C)(C)CC(=O)O)cc1` was tested, and the T/C (dose: 50.0 mg/kg/injection, schedule: Q01DX009 (ip), vehicle: saline with Tween-80) was 97 % of control, the T/C [19] was 100 % of control and the T/C [20] was 90 % of control.

With `COc1c(OC)c2c3c(c(-c4c(C)cc5c(C(C)C)c(OC)c(OC)c6c5c4OC6=O)c(C)cc3c1C(C)C)OC2=O` the T/C (dose: 75.0 mg/kg/injection, schedule: Q04DX003 (ip), vehicle: Klucel (hydroxypropylcellulose) (HPC)) was 105 % of control, the T/C (dose: 150.0 mg/kg/injection, schedule: Q04DX003 (ip), vehicle: Klucel (hydroxypropylcellulose) (HPC)) was 92 % of control and the T/C (dose: 300.0 mg/kg/injection, schedule: Q04DX003 (ip), vehicle: Klucel (hydroxypropylcellulose) (HPC)) was 92 % of control.

With `O=C(Nc1ccc([N+](=O)[O-])cc1[N+](=O)[O-])C(Cl)(Cl)Cl` the T/C [1] was 94 % of control, the T/C [2] was 96 % of control and the T/C [9] was 105 % of control.

`CC(=O)Nc1nc2c(ncn2C2OCC(OC(C)=O)C(OC(C)=O)C2OC(C)=O)c(=O)[nH]1` (stereo unspecified) (tested in a mixture with another compound) was tested, and the T/C [6] was 102 % of control, the T/C [7] was 102 % of control and the T/C [8] was 101 % of control.

In the case of `Cc1ccc(P(=O)(O)O)c([N+](=O)[O-])c1`, the T/C [6] is reported as 94 % of control and the T/C [7] is reported as 92 % of control.

`CCCCCCC/C=N/N=C/CCCCCCC` was tested, and the T/C (dose: 100.0 mg/kg/injection, schedule: Q01DX009 (ip), vehicle: other) was 97 % of control, the T/C (dose: 100.0 mg/kg/injection, schedule: Q04DX003 (ip), vehicle: other) was 97 % of control and the T/C (dose: 200.0 mg/kg/injection, schedule: Q01DX009 (ip), vehicle: other) was 100 % of control. The T/C (dose: 200.0 mg/kg/injection, schedule: Q04DX003 (ip), vehicle: other) was 97 % of control, the T/C (dose: 400.0 mg/kg/injection, schedule: Q01DX009 (ip), vehicle: other) was 112 % of control and the T/C (dose: 400.0 mg/kg/injection, schedule: Q04DX003 (ip), vehicle: other) was 109 % of control.

For `c1ccc(CN2CCOCC2)nc1`, the T/C [6] was 96 % of control, the T/C [7] was 113 % of control and the T/C [8] was 98 % of control.
